In article PMC7281472, “CYC31, A Natural Bromophenol PTP1B Inhibitor, Activates Insulin Signaling and Improves Long Chain-Fatty Acid Oxidation in C2C12 Myotubes” (Marine Drugs, 2020):

Biological target: T1, protein tyrosine phosphatase 1B (PTP1B) (Homo sapiens, UniProt P18031)
T1 construct: gene PTPN1; PTP1B1-321
T1 sequence (P18031 1-321): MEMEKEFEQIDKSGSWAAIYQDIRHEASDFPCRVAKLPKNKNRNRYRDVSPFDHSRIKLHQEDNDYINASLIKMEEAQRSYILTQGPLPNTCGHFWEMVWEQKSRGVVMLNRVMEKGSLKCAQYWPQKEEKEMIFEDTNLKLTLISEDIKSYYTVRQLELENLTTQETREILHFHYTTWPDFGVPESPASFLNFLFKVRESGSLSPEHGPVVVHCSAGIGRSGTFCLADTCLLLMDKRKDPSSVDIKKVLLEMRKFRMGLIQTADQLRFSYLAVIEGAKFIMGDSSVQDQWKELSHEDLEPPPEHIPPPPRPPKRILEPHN
Assay: pNPP hydrolysis assay with recombinant human PTP1B, absorbance at […] nm
Assay type: biochemical

Oc1cc(Cc2cc(O)c(O)c(Br)c2Cc2cc(O)c(O)c(Br)c2Br)c(Br)c(Br)c1O [CYC31, 3-bromo-4,5-Bis(2,3-dibromo-4,5-dihydroxybenzyl)-1,2-benzenediol]
pNPP hydrolysis assay with recombinant human PTP1B, absorbance at 405 nm: As shown in Figure 1B, PTP1B was significantly inactivated by CYC31 in a concentration-dependent manner.
